Measurements published in patent US20230255939A1, “Antimicrobial Agent for Non-Human Animal” (ISHIHARA SANGYO KAISHA, LTD, priority 2020, published 2023).
In brackets after ≈: the same amount, converted by molar mass.

How the values were obtained:
[1] = system: Malassezia pachydermatis (IFM56528); test: Antifungal activity test, fungicidal concentration after 1 minute contact (Test Examples 10-1 and 10-2); assay type: cell-based; conditions: for half fungicidal concentration MFC50: M. pachydermatis IFM56528, colony formation inhibition rate of 50%; for 90% fungicidal concentration MFC90: M. pachydermatis IFM56528, colony formation inhibition rate of 90%; for MFC: Malassezia pachydermatis, 1 min, M. pachydermatis IFM56528, no colony growth, read-out: Minimum fungicidal concentration MFC100
Method: Test Example 10-1: Antifungal Activity Test
Test Compound: Compound No. 6
Test Microbial Strain: Malassezia Pachydermatis (IFM56528)
The Malassezia microbe (Malassezia pachydermatis) cultured for 5 to 7 days in a Sabouraud medium (1% peptone, 4% dextrin, 1.5% agar) was suspended in physiological saline, and a suspension thereof was prepared in such a way as to have an absorbance of 0.025 at 600 nm. Thereto, the test compound dissolved in DMSO was added in such a way as to provide a final concentration of 70, 65, 64, 60, 55, 45, 40, 35, 32, 20, 18, or 8 ppm, and after 1 minute, 10 µL of the suspension and 10 mL of physiological saline were placed in a syringe and stirred, and the syringe was connected to a 37 mm Quality Monitor (manufactured by Pall Corporation) followed by filtration and washing. The membrane filter was impregnated as it was with the Sabouraud medium and subjected to culturing at 32° C. for 72 hours, the presence or absence of colony growth was investigated, and the concentration at which there was no colony growth was determined as the minimum fungicidal concentration (MFC100). When there was colony growth, the number of colonies formed there (the number of colonies in the inventive plot) and the number of colonies in a solvent to which the test compound was not added (the number of colonies in the non-agent treated plot) were measured, the colony formation inhibition rate (%) was determined according to the following expression, and the concentration showing a colony formation inhibition rate of 90% was determined as the 90% fungicidal concentration (MFC90), and the concentration showing a colony formation inhibition rate of 50% was determined as half fungicidal concentration (MFC50).
Colony formation inhibition rate (%) = [(number of colonies in non-agent treated plot - number of colonies in inventive plot)/number of colonies in non-agent treated plot] × 100
Test Example 10-2: Antifungal Activity Test
Test Compound: Compound No. 1
The Malassezia microbe (Malassezia pachydermatis) cultured for 5 to 7 days in a Sabouraud medium (1% peptone, 4% dextrin, 1.5% agar) was suspended in physiological saline, and a suspension thereof was prepared in such a way as to have an absorbance of 0.025 at 600 nm. Thereto, the test compound dissolved in DMSO was added in such a way as to provide a final concentration of 500, 250, 200, 190, 180, 170, 160, 150, 140, 130, 125, 120, 110, 100, 90, 80, 70, or 64 ppm, and after 1 minute, 10 µL of the suspension and 10 mL of physiological saline were placed in a syringe and stirred, and the syringe was connected to a 37 mm Quality Monitor (manufactured by Pall Corporation) followed by filtration and washing. The membrane filter was impregnated as it was with the Sabouraud medium and subjected to culturing at 32° C. for 72 hours, the presence or absence of colony growth was investigated, and the concentration at which there was no colony growth was determined as the minimum fungicidal concentration (MFC100). When there was colony growth, the number of colonies formed there (the number of colonies in the inventive plot) and the number of colonies in a solvent to which the test compound was not added (the number of colonies in the non-agent treated plot) were measured, the colony formation inhibition rate (%) was determined according to the following expression, and the concentration showing a colony formation inhibition rate of 90% was determined as the 90% fungicidal concentration (MFC90), and the concentration showing a colony formation inhibition rate of 50% was determined as half fungicidal concentration (MFC50).

[2] = system: Malassezia pachydermatis (ATCC14522 strain); test: Malassezia otitis externa effect test (dog) (Test Example 3); assay type: in vivo, dog (Beagle); parameters: Total score (redness, earwax, itching, rash) Immediately before treatment / Total score (redness, earwax, itching, rash) 7 Days after treatment: scale not given here; conditions: for Microbial count (cfu/ml) 7 Days after treatment: 500 ppm agent solution for 1 minute; for Microbial count (cfu/ml) Immediately before treatment: baseline before 500 ppm agent solution; for Total score (redness, earwax, itching, rash) 7 Days after treatment: 5 mL of 500 ppm agent solution for 1 minute; for Improvement rate (%) of microbial count / Improvement rate (%) of symptom total score: 500 ppm for 1 minute, 7 days after treatment; for Total score (redness, earwax, itching, rash) Immediately before treatment: baseline 7 days after inoculation, before 500 ppm agent solution
Method: Test Example 3: Malassezia Otitis Externa Effect Test (Dog) Test Variety: Beagle (19 to 20-Month-Old)
Test Microbial Strain: Malassezia Pachydermatis (ATCC14522 Strain)
A colony of the Malassezia microbe pre-cultured (7 days, 30° C.) on a Sabouraud agar medium was suspended in sterilized physiological saline (microbial concentration of 1.0 × 10^6 cells/mL), and 0.1 mL of the resulting suspension was inoculated into both ears of the test animal. 7 Days after the inoculation, both ears were filled with 5 mL of an agent solution (sterilized physiological saline solution supplemented with 5% DMSO) prepared to have a concentration of the test compound of 500 ppm, and after 1 minute, thoroughly washed with sterilized physiological saline solution.
At the same time, the number of the Malassezia microbe present inside the ears of the sample was also investigated by the following method.
The surface of the ear canal was scraped three times using a cotton swab to collect the microbe, and the collected microbe was suspended in 1 mL of PBS (containing 8 g of sodium chloride, 2.9 g of disodium hydrogen phosphate, 0.2 g of potassium chloride, and 0.2 g of potassium dihydrogen phosphate in 1000 mL) supplemented with 1% v/v of Tween80 (polyoxyethylene sorbitan monooleate: manufactured by Kanto Chemical Co., Ltd.) together with the cotton swab. The resulting suspension was serially diluted 10-fold with the PBS, and 0.1 mL thereof was applied to a CHROMagar Malassezia/Candida medium (trade name; peptone, special enzyme substrate mixture, chloramphenicol, olive oil, agar) and cultured at 30° C. for 4 days. After that, the colonies having a pink to purple color were counted, the microbial count score was calculated, and the improvement rate was determined.

Row | SMILES | half fungicidal concentration MFC50 [1] [ppm] | 90% fungicidal concentration MFC90 [1] [ppm] | MFC [1] [µg/mL] | Microbial count (cfu/ml) 7 Days after treatment ([2]; left ear canal swab) [cfu/ml] | Microbial count (cfu/ml) Immediately before treatment ([2]; left ear canal swab) | Total score (redness, earwax, itching, rash) 7 Days after treatment ([2]; left ear) | Improvement rate (%) of microbial count ([2]; left ear) [%] | Improvement rate (%) of symptom total score ([2]; left ear) [%] | Total score (redness, earwax, itching, rash) Immediately before treatment ([2]; left ear) | Microbial count (cfu/ml) 7 Days after treatment ([2]; right ear canal swab) [cfu/ml] | Microbial count (cfu/ml) Immediately before treatment ([2]; right ear canal swab) | Total score (redness, earwax, itching, rash) 7 Days after treatment ([2]; right ear) | Improvement rate (%) of microbial count ([2]; right ear) [%] | Improvement rate (%) of symptom total score ([2]; right ear) [%] | Total score (redness, earwax, itching, rash) Immediately before treatment ([2]; right ear)
1 | Cc1ccc(-c2nc(C#N)[nH]c2Cl)cc1 [Compound No. 1, 5-Chloro-4-(4-methylphenyl)-1H-imidazole-2-carbonitrile] | 64 | 130 | 160 (≈ 735 µM) | 30 | 900 cfu/ml | 1 | 96.7 | 67 | 3 | 30 | 1,300 cfu/ml | 1 | 97.7 | 67 | 3
2 | Cc1ccc(-c2nc(C#N)[nH]c2Cl)cc1Cl [Compound No. 6, 5-chloro-4-(3-chloro-4-methylphenyl)-1H-imidazole-2-carbonitrile] | 8 | 20 | 40 (≈ 159 µM) | 20 | 5,300 cfu/ml | 0 | 99.6 | 100 | 3 | 20 | 2,800 cfu/ml | 0 | 99.3 | 100 | 3
